Results published in PubChem BioAssay (NCI).
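Five concentrations, 48 hours, 96-well plates. GI50: concentration for 50% inhibition of growth. The concentration for full growth arrest is given as TGI.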

Columns and labels:
Test in all cases: NCI-60 cell line screen, 48 h
OVCAR-8 ovarian = test system: OVCAR-8 ovarian
SNB-19 CNS = test system: SNB-19 CNS
COLO 205 colon = test system: COLO 205 colon
RXF 393 renal = test system: RXF 393 renal
HCT-15 colon = test system: HCT-15 colon
SNB-75 CNS = test system: SNB-75 CNS
M14 melanoma = test system: M14 melanoma
SF-539 CNS = test system: SF-539 CNS
SW-620 colon = test system: SW-620 colon
SK-MEL-2 melanoma = test system: SK-MEL-2 melanoma

For `COc1ccc(NC(=O)CC(=O)N/N=C(\C)c2cc3ccccc3oc2=O)cc1`, the TGI (OVCAR-8 ovarian) was over 100 µM, the TGI (SNB-19 CNS) was over 100 µM and the TGI (COLO 205 colon) was over 100 µM. The TGI (RXF 393 renal) was over 100 µM, the TGI (HCT-15 colon) was over 100 µM and the TGI (SNB-75 CNS) was over 100 µM. It also gave a TGI (M14 melanoma) of over 100 µM, a TGI (SF-539 CNS) of over 100 µM and a TGI (SW-620 colon) of over 100 µM.
For `COc1ccc2nc(C)cc(Sc3nc4ccccc4s3)c2c1`, the GI50 (OVCAR-8 ovarian) was 2660 nM, the TGI (OVCAR-8 ovarian) was 10.9 µM and the GI50 (SNB-19 CNS) was 3.46 µM. For the same compound, the TGI (SNB-19 CNS) was 28.8 µM, the GI50 (COLO 205 colon) was 816 nM and the TGI (COLO 205 colon) was 2.58 µM. The GI50 (RXF 393 renal) was 2630 nM, the TGI (RXF 393 renal) was 8.19 µM and the GI50 (HCT-15 colon) was 953 nM. It also gave a TGI (HCT-15 colon) of 3.73 µM, a GI50 (SNB-75 CNS) of 885 nM and a TGI (SNB-75 CNS) of 5.12 µM. For the same compound, the GI50 (M14 melanoma) was 1920 nM, the TGI (M14 melanoma) was 9.34 µM and the GI50 (SF-539 CNS) was 1730 nM. It also gave a TGI (SF-539 CNS) of 4.04 µM, a GI50 (SW-620 colon) of 1510 nM and a TGI (SW-620 colon) of 2.98 µM.
Work on `O=C1CC(c2cccc(Cl)c2)Oc2ccccc21` (centres undefined) yielded a TGI (OVCAR-8 ovarian) of 53.8 µM, a TGI (SNB-19 CNS) of 30.8 µM and a TGI (COLO 205 colon) of 69.3 µM. The TGI (HCT-15 colon) was 49 µM, the TGI (SNB-75 CNS) was 66.6 µM and the TGI (M14 melanoma) was 36 µM. For the same compound, the TGI (SK-MEL-2 melanoma) was 35.6 µM, the TGI (SF-539 CNS) was 36.3 µM and the TGI (SW-620 colon) was 72.1 µM.
`CC(C)=Cc1cc(CCC/C(C)=C/Cc2c(O)cc(C)c(C(=O)O)c2O)co1` was tested, and the TGI (OVCAR-8 ovarian) was over 100 µM, the TGI (SNB-19 CNS) was over 100 µM and the TGI (COLO 205 colon) was over 100 µM. It also gave a TGI (HCT-15 colon) of over 100 µM, a TGI (SNB-75 CNS) of over 100 µM and a TGI (M14 melanoma) of over 100 µM. For the same compound, the TGI (SK-MEL-2 melanoma) was over 100 µM, the TGI (SF-539 CNS) was over 100 µM and the TGI (SW-620 colon) was over 100 µM.
For `O=c1cc[nH]cc1-c1c[nH]ccc1=O`, the TGI (OVCAR-8 ovarian) was over 100 µM, the TGI (COLO 205 colon) was over 100 µM and the TGI (RXF 393 renal) was over 100 µM. For the same compound, the TGI (HCT-15 colon) was over 100 µM, the TGI (SNB-75 CNS) was over 100 µM and the TGI (M14 melanoma) was over 100 µM. It also gave a TGI (SF-539 CNS) of over 100 µM and a TGI (SW-620 colon) of over 100 µM.
`O=c1c2ccccc2oc2ccccc12` (tested in a mixture with another compound) was tested, and the TGI (OVCAR-8 ovarian) was over 100 µM, the TGI (SNB-19 CNS) was over 100 µM and the TGI (COLO 205 colon) was over 100 µM. The TGI (SNB-75 CNS) was 7.58 µM, the TGI (M14 melanoma) was over 100 µM and the TGI (SF-539 CNS) was over 100 µM. The TGI (SW-620 colon) was over 100 µM.
Compound `O=C1OCC2=C1C(c1cccc(C(F)(F)F)c1)c1cc3c(cc1N2CCO)OCCO3` (centres undefined) has a GI50 (OVCAR-8 ovarian) of 1290 nM, a TGI (OVCAR-8 ovarian) of over 33.3 µM and a GI50 (SNB-19 CNS) of 1.63 µM. It also gave a TGI (SNB-19 CNS) of over 33.3 µM, a GI50 (COLO 205 colon) of 868 nM and a TGI (COLO 205 colon) of 2.48 µM. The GI50 (HCT-15 colon) was 967 nM, the TGI (HCT-15 colon) was over 33.3 µM and the GI50 (M14 melanoma) was 967 nM. For the same compound, the TGI (M14 melanoma) was over 33.3 µM, the GI50 (SK-MEL-2 melanoma) was 1.99 µM and the TGI (SK-MEL-2 melanoma) was over 33.3 µM. It also gave a GI50 (SF-539 CNS) of 849 nM, a TGI (SF-539 CNS) of 3.11 µM and a GI50 (SW-620 colon) of 1240 nM. It also gave a TGI (SW-620 colon) of over 33.3 µM.
`CC(C)(C)c1ccc(C2CC(=O)C3=C(C2)Nc2ccccc2N(C(=O)c2ccccc2Cl)C3c2ccc(F)cc2)cc1` (centres undefined) was tested, and the GI50 (OVCAR-8 ovarian) was over 100000 nM, the TGI (OVCAR-8 ovarian) was over 100 µM and the GI50 (SNB-19 CNS) was over 100 µM. The TGI (SNB-19 CNS) was over 100 µM, the GI50 (COLO 205 colon) was over 100000 nM and the TGI (COLO 205 colon) was over 100 µM. For the same compound, the GI50 (RXF 393 renal) was over 100000 nM, the TGI (RXF 393 renal) was over 100 µM and the GI50 (HCT-15 colon) was over 100000 nM. The TGI (HCT-15 colon) was over 100 µM, the GI50 (SNB-75 CNS) was over 100000 nM and the TGI (SNB-75 CNS) was over 100 µM. It also gave a GI50 (M14 melanoma) of over 100000 nM, a TGI (M14 melanoma) of over 100 µM and a GI50 (SF-539 CNS) of over 100000 nM. It also gave a TGI (SF-539 CNS) of over 100 µM, a GI50 (SW-620 colon) of over 100000 nM and a TGI (SW-620 colon) of over 100 µM.
Compound `C=CC1C(CC2OC(CO)C(O)C(O)C2O)OC=C2C(=O)OCCC21O` (centres undefined) has a GI50 (OVCAR-8 ovarian) of 16700 nM, a TGI (OVCAR-8 ovarian) of 62.4 µM and a GI50 (SNB-19 CNS) of 13.8 µM. The TGI (SNB-19 CNS) was 37.1 µM, the GI50 (COLO 205 colon) was 19900 nM and the TGI (COLO 205 colon) was 45.2 µM. It also gave a GI50 (HCT-15 colon) of 19500 nM, a TGI (HCT-15 colon) of 49.9 µM and a GI50 (SNB-75 CNS) of 1840 nM. The TGI (SNB-75 CNS) was 18.6 µM, the GI50 (M14 melanoma) was 22300 nM and the TGI (M14 melanoma) was 65.7 µM. It also gave a GI50 (SK-MEL-2 melanoma) of 22.4 µM, a TGI (SK-MEL-2 melanoma) of 71.4 µM and a GI50 (SW-620 colon) of 5380 nM. It also gave a TGI (SW-620 colon) of 29.9 µM.
For `O=C1C(Cl)=C(Cl)C(=O)N1c1ccc(Cl)c(Cl)c1Cl`, the TGI (SNB-19 CNS) was over 100 µM, the TGI (COLO 205 colon) was over 100 µM and the TGI (HCT-15 colon) was over 100 µM. For the same compound, the TGI (SNB-75 CNS) was over 100 µM, the TGI (M14 melanoma) was over 100 µM and the TGI (SK-MEL-2 melanoma) was over 100 µM. It also gave a TGI (SF-539 CNS) of over 100 µM and a TGI (SW-620 colon) of over 100 µM.
Work on `CN1CCC(c2c(O)cc(O)c3c(=O)cc(-c4ccccc4Cl)oc23)C(O)C1` (centres undefined) yielded a TGI (SNB-19 CNS) of over 100 µM, a TGI (COLO 205 colon) of 0.255 µM and a TGI (RXF 393 renal) of 0.0312 µM. The GI50 (HCT-15 colon) was 50.6 nM, the TGI (HCT-15 colon) was over 100 µM and the GI50 (SNB-75 CNS) was 48.2 nM. The TGI (SNB-75 CNS) was 0.18 µM, the TGI (M14 melanoma) was 0.236 µM and the GI50 (SF-539 CNS) was 288 nM. The TGI (SF-539 CNS) was over 100 µM, the GI50 (SW-620 colon) was 53.2 nM and the TGI (SW-620 colon) was over 100 µM.
With `C1CSC[C@H]2COC[C@@H](CSCCS1)S2` the TGI (OVCAR-8 ovarian) was over 100 µM, the TGI (SNB-19 CNS) was over 100 µM and the TGI (COLO 205 colon) was over 100 µM. The TGI (HCT-15 colon) was over 100 µM, the TGI (SNB-75 CNS) was over 100 µM and the TGI (M14 melanoma) was over 100 µM. For the same compound, the TGI (SF-539 CNS) was over 100 µM and the TGI (SW-620 colon) was over 100 µM.
`O=C(c1ccccc1)c1nnn(Cc2ccccc2Cn2nnc(C(=O)c3ccccc3)c2C(=O)c2ccccc2)c1C(=O)c1ccccc1` showed a TGI (OVCAR-8 ovarian) of over 100 µM, a TGI (SNB-19 CNS) of over 100 µM and a TGI (COLO 205 colon) of over 100 µM. The TGI (HCT-15 colon) was over 100 µM, the TGI (SNB-75 CNS) was over 100 µM and the TGI (M14 melanoma) was over 100 µM. For the same compound, the TGI (SK-MEL-2 melanoma) was over 100 µM, the TGI (SF-539 CNS) was over 100 µM and the TGI (SW-620 colon) was over 100 µM.
`CC(C)C1(NC(=O)C2CC3c4cccc5[nH]cc(c45)CC3N(C)C2)OC2(O)C3CCCN3C(=O)C(Cc3ccccc3)N2C1=O` (centres undefined) gave a TGI (OVCAR-8 ovarian) of over 100 µM, a TGI (SNB-19 CNS) of over 100 µM and a TGI (COLO 205 colon) of over 100 µM. It also gave a TGI (HCT-15 colon) of over 100 µM, a TGI (SNB-75 CNS) of 86.8 µM and a TGI (M14 melanoma) of over 100 µM. The TGI (SK-MEL-2 melanoma) was over 100 µM, the TGI (SF-539 CNS) was over 100 µM and the TGI (SW-620 colon) was over 100 µM.
`CC(C)N(C(=O)C12C3C4C5(C(=O)O)C(C1C35I)C42C(=O)O)C(C)C` (centres undefined) gave a TGI (OVCAR-8 ovarian) of over 100 µM, a TGI (SNB-19 CNS) of over 100 µM and a TGI (COLO 205 colon) of over 100 µM. The TGI (HCT-15 colon) was over 100 µM, the TGI (SNB-75 CNS) was over 100 µM and the TGI (M14 melanoma) was over 100 µM. For the same compound, the TGI (SF-539 CNS) was over 100 µM and the TGI (SW-620 colon) was over 100 µM.
